In article PMC12314051, “Design, antiproliferative potency, and in silico studies of novel 5-methylfuran-3-yl)thio)-3-phenylquinazolin-4(3H)-one based derivatives as potential EGFR inhibitors” (Scientific Reports, 2025):
Several values for one entry are separate records, joined by “and”; a condition that tells them apart may be missing. Equal values may be shown once.

Assays:
HepG-2 cells = assay: MTT cytotoxicity assay, HepG-2; type: cell-based; conditions: Homo sapiens, HepG2; HepG-2, MTT assay; read-out: IC50 (mean ± SD)
Description: (§1) Following the published protocol[75]–[77], the cytotoxic effects of the newly synthesized quinazolinones 1–10 were assessed in vitro using the MTT test method on human liver HepG-2, breast MCF-7, colorectal HCT-116 cancer cell lines, and normal diploid cell line WI-38. There were further details in the supplemetary file.
(§2) The cell lines were obtained from Karolinska Center, Department of Oncology and Pathology, Karolinska Institute and Hospital, Stockholm, Sweden, as follows: human liver HepG-2, breast MCF-7, and colorectal HCT-116 cancer cell lines and human diploid cell line WI-38. Exponentially, cells were placed in 10^4 cells/ well for 24 h, and then fresh medium containing different concentrations of the tested sample. two-fold serial dilution of the tested sample was added using a multichannel pipette. Moreover, all cells were cultivated at 37 °C, 5% CO2 and 95% humidity. Also, incubation of control cells occurred at 37 °C. However, after incubation for 24 h different concentrations of the sample (100, 50, 25, 12.5, 6.25, 3.125, and 1.56 µM) were added, and continued the incubation for 48 h, then, add the crystal violet solution of 1% to each well for 0.5 h to examine viable cells. Rinse the wells using water until no stain. After that, add 30% glacial acetic acid to all wells with shaking plates on a Microplate reader (TECAN, Inc.) to measure the absorbance, using a test wavelength of 490 nm. Besides, compare the treated samples with the control cell. The cytotoxicity was estimated by IC50 in (μM), the concentration that inhibits 50% of growth of cancer cell.

HCT-116 cells = assay: MTT cytotoxicity assay, HCT-116; type: cell-based; conditions: Homo sapiens; HCT-116, MTT assay; read-out: IC50 (mean ± SD)
Description: as §1, §2

MCF-7 cells [1] = assay: MTT cytotoxicity assay, MCF-7; type: cell-based; conditions: Homo sapiens, MCF7; MCF-7, MTT assay; read-out: IC50 (mean ± SD)
Description: as §1, §2

WI-38 cells = assay: MTT cytotoxicity assay, normal WI-38; type: cell-based; conditions: Homo sapiens; normal WI-38, MTT assay; read-out: IC50 (mean ± SD)
Description: . […]. Furthermore, the MTT assay was employed to examine the safety profiles of the cytotoxic activity against the normal human diploid cell line WI-38 (Table 1). […]. They could therefore be considered safe chemotherapeutic agents.
as §1, §2

[2] = system: HepG-2, HCT-116 and MCF-7 cell lines; assay: MTT cytotoxicity, all screened cancer cell lines together (SAR summary); type: cell-based, human; conditions: HepG-2, HCT-116 and MCF-7 cell lines
Description: […]. In addition, replacement of acetyl group in 2 with pyrazoline moiety with free N-1 in 7 or bound to thiazole in 9, yielded weak activity.
as §1, §2

EGFR = target: T1, EGFR (Homo sapiens, UniProt P00533); assay: In vitro EGFR inhibition assay; type: biochemical
T1 construct: purchased Abcam

VEGFR-2 = target: T2, VEGFR-2 (Homo sapiens, UniProt P35968); assay: In vitro VEGFR-2 inhibition assay (ELISA kit); type: biochemical; conditions: read-out: IC50 (mean ± SD)
T2 construct: purchased Ray Biotech
Description: Quinazolinone-based targets 1, 6b, 8a, and 10 were chosen for further evaluation of their in vitro inhibitory activity against EGFR and VEGFR-2 because of their exceptional cytotoxic outcomes, with the goal of clarifying their mode of action. […]. VEGFR-2 assay: the effect of the most promising cytotoxic compounds 1, 6b, 8a, and 10 was evaluated for their in vitro inhibitory activity against Human VEGFR-2 using ELISA kit according to manufacturer's instructions (Ray Biotech). This assay employs an antibody specific for human VEGFR-2 coated on a 96-well plate. Samples and standards were added to the wells and incubated over night at 4 °C with gentle shaking. The wells were washed and biotinylated antibody was added followed by incubation for one hour at room temperature. After washing away unbound biotinylated antibody, HRP conjugated streptavidin was pipetted to the wells and
incubated at room temperature for 45 min. The wells were then washed; TMB substrate solution was added and incubated for 30 min. The color developed was in proportion to the amount of VEGFR-2 bound. The Stop Solution was added and the intensity of the color was measured at 450 nm. Percent inhibition was calculated by the comparison of compounds treated to control incubations. […]

MCF-7 cells [3] = assay: Cell cycle analysis by flow cytometry (PI); type: cell-based, human; conditions: MCF-7, 3.91 μM, 24 h
Description: (§3) The treated cells were subsequently analyzed using flow cytometry and annexin-V labeling (Fig. 4, 5, 6).
(§4) Using flow cytometry, the investigation of cell cycle analysis and apoptosis was described[79],[81]. After applying quinazolinone-furan-benzo[b][1,4]diazepine 6b to MCF-7 cells for 24 h, the cells were incubated at 37 °C. The supplemental file contained more information.
(§5) Cell cycle analysis and apoptosis study were carried out using ab139418–Propidium Iodide Flow Cytometry Kit for Cell Cycle Analysis. MCF-7 cells were seeded at 8×10^4 and incubated at 37°C in 5% CO2 overnight. After treatment with the tested compound 10 for 24 h, cell pellets were collected and centrifuged (300 g, 5 min). For cell cycle analysis, cell pellets were fixed with 70% ethanol on ice for 15 min and collected again. The pellets were incubated with propidium iodide (PI) staining solution at room temperature for 1 h and analyzed by a Gallios flow cytometer (Beckman Coulter, Brea, CA, USA). Apoptosis detection was carried out by FITC AnnexinV/PI commercial kit (Becton Dickenson, Franklin Lakes, NJ, USA) following the manufacturer protocol. The samples were analyzed by fluorescence-activated cell sorting (FACS) with a Gallios flow cytometer (Beckman Coulter, Brea, CA, USA) within 1 h after staining. Data were analyzed using Kaluza v 1.2 (Beckman Coulter).

MCF-7 cells [4] = assay: Apoptosis detection, annexin V-FITC/PI flow cytometry; type: cell-based, human
Description: as §3, §4, §5

Bax = Bax level in MCF-7 cells; type: cell-based, human; conditions: MCF-7, 3.91 μM, 24 h
Text: (§6) The extrinsic pathway, which is controlled by the death receptor, and the intrinsic pathway, which is handled by the mitochondria, are the two primary mechanisms that govern the cell during apoptosis. The two proteins Bcl-2 and Bax can alter this planned process due to their respective roles as […] (inducer), and the balance between them adjusts cell death. A further vital component that either causes cell death or prevents cell proliferation is the tumor suppressor gene, p53. […] Furthermore, compound 6b increased the amount of p53 protein in MCF-7 treated cells by 7.2 times, while control cells only had 119.65 Pg/mL (Table 3).
(§7) For the promising quinazolinone-furan-benzo[b][1,4]diazepine 6b, the Bax, Bcl-2, and p53 levels in MCF-7 cells were elucidated using the previously disclosed method.
The magnitudes of the apoptotic proteins; BAX and Bcl-2 were evaluated using BIORAD iScript TM One-Step RT-PCR kit with SYBR®Green (BIO-RAD Laboratories, Hercules, CA, US). The method of the applied kit was conducted according to the manufacturer’s protocol and previously reported method. First, mRNA isolation is done using RNeasy extraction kit, up to 1 × 10^7 cells, depending on the cell line. Then Cells were exposed to RNeasy Lysis Buffer (RLT buffer) and homogenized, while ethanol was then supplemented to the mixture to allow selective binding of RNA to the RNeasy membrane. Afterwards, the sample was loaded to the RNeasy mini spin column where total RNA was bound to the membrane while contaminants competently passed through, and high-quality RNA was eluted in RNase-free water. Then, the reaction mixture was incubated in a real-time thermal detection system (Rotorgene) as follows: cDNA synthesis: 10 min at 50 ◦C, iScript reverse transcriptase inactivation: 5 min at 95 ◦C, polymerase chain reaction (PCR) cycling and detection (30–45 cycles): 10s at 95 ^◦C and 30 s at 55 ^◦C to 60 ^◦C (data collection step) and melt curve analysis: 1 min at 95 ◦C and 1 min at 55 ^◦C and 10s at 55 ^◦C (80 cycles, increasing each by 0.5 ^◦C each cycle).

Bcl-2 = Bcl-2 level in MCF-7 cells; type: cell-based, human; conditions: MCF-7, 3.91 μM, 24 h
Text: as §6, §7
The magnitudes of the apoptotic proteins; BAX and Bcl-2 were evaluated using BIORAD iScript TM One-Step RT-PCR kit with SYBR®Green (BIO-RAD Laboratories, Hercules, CA, US). The method of the applied kit was conducted according to the manufacturer’s protocol and previously reported method. First, mRNA isolation is done using RNeasy extraction kit, up to 1 × 10^7 cells, depending on the cell line. Then Cells were exposed to RNeasy Lysis Buffer (RLT buffer) and homogenized, while ethanol was then supplemented to the mixture to allow selective binding of RNA to the RNeasy membrane. […]

p53 = p53 level in MCF-7 cells (ELISA); type: cell-based, human; conditions: MCF-7, 3.91 μM, 24 h
Text: as §6, §7
Human p53 present in MCF-7 cells was determined; using Human p53 ELISA-Kit (CS0070 Sigma) read using spectrophotometer at 450 nm against untreated control cells (negative control) applying the standard protocols of the manufacturers. The samples or standard having human p53 bind to antibodies adsorbed to the microwells. Addition of biotin-conjugated was followed by incubation and addition of dispense of unbound biotin-conjugated streptavidin HRP. Then, the reaction was terminated by adding acid, and the absorbance was measured at 450 nm.

T1 sequence (P00533 25-1210): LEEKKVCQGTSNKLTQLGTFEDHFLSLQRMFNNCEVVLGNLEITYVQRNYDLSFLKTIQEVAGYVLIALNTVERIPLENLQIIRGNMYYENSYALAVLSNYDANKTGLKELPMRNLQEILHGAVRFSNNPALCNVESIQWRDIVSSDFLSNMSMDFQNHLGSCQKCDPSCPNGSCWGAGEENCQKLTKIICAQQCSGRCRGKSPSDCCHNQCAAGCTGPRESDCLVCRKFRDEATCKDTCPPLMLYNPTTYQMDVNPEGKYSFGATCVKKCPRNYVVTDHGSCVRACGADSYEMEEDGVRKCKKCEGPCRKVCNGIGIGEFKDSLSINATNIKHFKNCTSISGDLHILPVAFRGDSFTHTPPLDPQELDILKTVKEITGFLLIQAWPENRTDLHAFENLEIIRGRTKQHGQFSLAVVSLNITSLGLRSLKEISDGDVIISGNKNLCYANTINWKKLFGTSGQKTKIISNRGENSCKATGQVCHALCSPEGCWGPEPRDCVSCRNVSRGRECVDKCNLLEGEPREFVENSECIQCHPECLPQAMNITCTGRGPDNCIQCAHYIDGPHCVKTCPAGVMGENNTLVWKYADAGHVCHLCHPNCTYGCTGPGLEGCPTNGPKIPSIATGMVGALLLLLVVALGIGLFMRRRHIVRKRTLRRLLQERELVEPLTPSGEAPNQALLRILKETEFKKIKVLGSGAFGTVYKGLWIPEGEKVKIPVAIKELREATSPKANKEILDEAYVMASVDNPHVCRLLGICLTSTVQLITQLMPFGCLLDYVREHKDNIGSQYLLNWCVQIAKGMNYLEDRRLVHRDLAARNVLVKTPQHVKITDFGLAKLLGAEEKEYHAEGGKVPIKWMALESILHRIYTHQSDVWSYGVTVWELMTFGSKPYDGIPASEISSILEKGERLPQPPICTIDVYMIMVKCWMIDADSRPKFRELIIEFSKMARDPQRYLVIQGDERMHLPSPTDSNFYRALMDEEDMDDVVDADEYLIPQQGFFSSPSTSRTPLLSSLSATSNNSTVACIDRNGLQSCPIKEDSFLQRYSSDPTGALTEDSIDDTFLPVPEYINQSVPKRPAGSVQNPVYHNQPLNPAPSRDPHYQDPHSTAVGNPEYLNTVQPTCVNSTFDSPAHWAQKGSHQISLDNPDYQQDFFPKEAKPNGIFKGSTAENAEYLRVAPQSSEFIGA
T2 sequence (P35968 20-1356): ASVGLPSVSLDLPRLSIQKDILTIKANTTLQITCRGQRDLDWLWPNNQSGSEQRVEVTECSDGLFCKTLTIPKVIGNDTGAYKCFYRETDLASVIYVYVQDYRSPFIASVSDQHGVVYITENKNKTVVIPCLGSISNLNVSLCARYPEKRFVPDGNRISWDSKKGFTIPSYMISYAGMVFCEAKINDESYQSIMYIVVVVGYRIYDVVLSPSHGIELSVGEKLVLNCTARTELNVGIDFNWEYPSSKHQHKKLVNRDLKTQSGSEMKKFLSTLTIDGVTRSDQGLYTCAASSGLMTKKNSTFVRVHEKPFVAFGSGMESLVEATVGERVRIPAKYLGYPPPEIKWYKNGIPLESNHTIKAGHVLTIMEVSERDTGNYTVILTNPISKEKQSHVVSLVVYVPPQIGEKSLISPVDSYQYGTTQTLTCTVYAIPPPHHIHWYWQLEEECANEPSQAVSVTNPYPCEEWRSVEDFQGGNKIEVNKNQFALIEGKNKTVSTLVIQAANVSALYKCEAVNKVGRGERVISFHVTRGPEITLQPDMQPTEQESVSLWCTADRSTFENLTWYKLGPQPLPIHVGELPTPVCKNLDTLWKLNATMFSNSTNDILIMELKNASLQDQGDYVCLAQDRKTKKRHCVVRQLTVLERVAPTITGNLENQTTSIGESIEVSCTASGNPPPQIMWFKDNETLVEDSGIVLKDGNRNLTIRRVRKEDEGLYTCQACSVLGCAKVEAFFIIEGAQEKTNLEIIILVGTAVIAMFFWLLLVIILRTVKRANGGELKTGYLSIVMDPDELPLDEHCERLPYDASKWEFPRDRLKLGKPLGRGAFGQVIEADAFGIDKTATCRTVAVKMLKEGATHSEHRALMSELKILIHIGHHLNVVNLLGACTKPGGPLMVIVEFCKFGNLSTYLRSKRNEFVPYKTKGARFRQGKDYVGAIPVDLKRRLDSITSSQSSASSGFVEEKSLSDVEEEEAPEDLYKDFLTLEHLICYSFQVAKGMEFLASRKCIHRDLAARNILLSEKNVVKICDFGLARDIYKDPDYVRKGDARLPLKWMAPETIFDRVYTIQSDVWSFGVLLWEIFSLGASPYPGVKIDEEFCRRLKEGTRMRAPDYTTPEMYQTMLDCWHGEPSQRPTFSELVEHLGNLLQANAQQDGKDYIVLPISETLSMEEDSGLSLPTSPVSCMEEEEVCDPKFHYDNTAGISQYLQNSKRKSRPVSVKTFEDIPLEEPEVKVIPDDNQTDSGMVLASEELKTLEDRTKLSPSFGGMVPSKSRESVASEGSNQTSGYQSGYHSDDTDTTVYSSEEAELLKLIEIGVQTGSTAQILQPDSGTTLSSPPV

For `Cc1occ(Sc2nc3ccccc3c(=O)n2-c2ccccc2)c1C1CC(c2ccco2)Nc2ccccc2N1` (centres unmarked) [Compound 6b, 2-((4-(4-(Furan-2-yl)-2,3,4,5-tetrahydro-1H-benzo[b][1,4]diazepin-2-yl)-5-methylfuran-3-yl)thio)-3-phenylquinazolin-4(3H)-one], the IC50 (HepG-2 cells) was 5.8 ± 0.4 µM, the IC50 (HCT-116 cells) was 7.97 ± 0.5 µM and the IC50 (MCF-7 cells [1]) was 3.91 ± 0.2 µM. For the same compound, the IC50 (WI-38 cells) was 41.3 ± 2.5 µM, the “cytotoxic activity in words (SAR study)” value [2] was “Excellent activity” and the “selectivity EGFR over VEGFR-2” value (EGFR; EGFR versus VEGFR-2) was “substantially more selective for EGFR than VEGFR-2”. The IC50 (EGFR; EGFR, read-out: IC50 (mean ± SD)) was 0.19 ± 0.03 µM, the IC50 (VEGFR-2) was 31.6 ± 1.48 µM and the “%G0-G1” value (MCF-7 cells [3]) was 46.68%. For the same compound, the “%G2/M” value (MCF-7 cells [3]) was 35.29%, the “%S” value (MCF-7 cells [3]) was 18.03% and the “Apoptosis Early” value (MCF-7 cells [4]; MCF-7, 3.91 μM, 24 h) was 8.92%. The “Apoptosis Late” value (MCF-7 cells [4]; MCF-7, 3.91 μM, 24 h) was 15.39%, the “Apoptosis Total” value (MCF-7 cells [4]; MCF-7, 3.91 μM, 24 h) was 29.76 and the Necrosis (MCF-7 cells [4]; MCF-7, 3.91 μM, 24 h) was 5.45%. The “apoptosis in MCF-7 cells as stated in abstract and conclusion” value (MCF-7 cells [4]; MCF-7, flow cytometry) was 35.29%, the Bax (Bax) was 241.60 pg/mL and 241.6 ± 1.33 pg/mL and the Bax/Bcl-2 (Bax) was 85.67. The “rise in Bax levels versus untreated control” value (Bax) was 6.3 fold, the Bcl-2 (Bcl-2) was 2.82 ng/mL and 2.82 ± 0.11 ng/mL and the “Bcl-2 protein downregulated versus control” value (Bcl-2) was 2.6 times. For the same compound, the P53 (p53) was 860.55 ± 2.47 pg/mL and the “increase of p53 protein versus control” value (p53) was 7.2 times.
